Experimental data published in PMC11467737, “Osteocalcin binds to a GPRC6A Venus fly trap allosteric site to positively modulate GPRC6A signaling” (FASEB BioAdvances, 2024).
Bridge positions count the residues as written; N and C are the ends. Ends that are not written are not given here.

Tests used:
[1] = biological target: T1, human GPRC6A isoform 1 (Homo sapiens, UniProt Q5T6X5); experiment: cAMP accumulation in HEK-293 cells transfected with human GPRC6A isoform 1 (wild-type, full length); type: cell-based; details: for cAMP accumulation by synthesized human Ocn fragments: fragments at 20 nM, Figure 3C / S5C
T1 construct: expressed in transfected cells; host or cells: HEK-293, pcDNA3-hGPRC6A
T1 sequence (Q5T6X5 19-926): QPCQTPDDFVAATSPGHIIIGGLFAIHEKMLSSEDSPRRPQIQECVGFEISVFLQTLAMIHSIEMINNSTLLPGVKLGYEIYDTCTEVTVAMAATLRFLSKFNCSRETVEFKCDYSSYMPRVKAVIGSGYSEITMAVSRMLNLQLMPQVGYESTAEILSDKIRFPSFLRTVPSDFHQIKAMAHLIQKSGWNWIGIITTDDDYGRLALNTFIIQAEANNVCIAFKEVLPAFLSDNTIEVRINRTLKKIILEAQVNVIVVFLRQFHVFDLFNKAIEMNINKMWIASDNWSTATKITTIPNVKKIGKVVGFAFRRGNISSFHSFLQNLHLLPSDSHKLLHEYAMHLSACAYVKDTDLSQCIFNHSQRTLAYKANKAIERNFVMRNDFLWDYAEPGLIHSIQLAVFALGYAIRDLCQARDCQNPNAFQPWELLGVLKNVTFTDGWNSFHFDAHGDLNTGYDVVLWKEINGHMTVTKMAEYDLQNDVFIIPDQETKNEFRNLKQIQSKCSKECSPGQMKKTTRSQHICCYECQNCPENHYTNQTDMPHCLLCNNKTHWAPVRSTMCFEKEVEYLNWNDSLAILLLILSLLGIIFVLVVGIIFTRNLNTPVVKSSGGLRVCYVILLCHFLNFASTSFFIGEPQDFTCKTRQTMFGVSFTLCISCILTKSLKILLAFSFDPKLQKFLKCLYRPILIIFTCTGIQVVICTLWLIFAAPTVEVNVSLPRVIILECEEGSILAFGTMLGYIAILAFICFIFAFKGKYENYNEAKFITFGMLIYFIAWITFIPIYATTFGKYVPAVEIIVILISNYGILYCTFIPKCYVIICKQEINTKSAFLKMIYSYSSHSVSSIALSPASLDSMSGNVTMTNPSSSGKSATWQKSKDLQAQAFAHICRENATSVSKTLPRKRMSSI
Method: (§1) HEK‐293 transfected with human GPRC6A isoform cDNA plasmids cells (10^5 cells/well)[30] were cultured in 24‐well plates in DMEM supplemented with 10% fetal bovine serum and 1% penicillin/streptomycin (100 U/mL of penicillin and 100 μg/mL of streptomycin) for 48 h followed by 4 h incubation in DMEM/F12 containing 0.1% BSA and 0.5 mM IBMX to achieve quiescence and preventing cAMP degradation. Quiescent cells were treated with vehicle control, various ligands at concentration as indicated for 40 min at 37°C. Then, the reaction was stopped, and the cells lysed with 0.5 mL 0.1 N HCl. cAMP levels were measured by using Cyclic AMP EIA kit (Cayman Chemical; Ann Arbor, MA, USA) following the manufacture's protocol.

[2] = test system: GPRC6A isoforms 1, 2 and 3; experiment: GPRC6A signaling in GPRC6A isoforms (read-out not given); type: cell-based, human
Method: All culture reagents were from Invitrogen (Waltham, MA, USA). Human embryonic kidney HEK‐293 cells were obtained from American Type Culture Collection and cultured in DMEM medium supplemented with 10% fetal bovine serum and 1% Penicillin/Streptomycin (P/S). Briefly, HEK‐293 cells transfected with/without human GPRC6A isoforms cDNA plasmids were starved by overnight incubation in serum‐free DMEM/F12 containing 0.1% bovine serum albumin (BSA) and stimulated with various ligands at different doses. ERK activation was assessed 20 min after treatment by using ERK1/2 (phospho‐T203/Y204) ELISA Kit (Invitrogen; Waltham, MA, USA) corrected for the amount of total ERK using ERK1/2 (Total) ELISA Kit (Invitrogen; Waltham, MA, USA) to measure ERK levels.
as §1, with “Quiescent cells were treated with vehicle control, various ligands at concentration as indicated for 40 min at 37°C.” left out

[3] = test system: wild‐type (Gprc6a +/+) and global knock out (Gprc6a −/−) mice; experiment: Blood glucose after intraperitoneal injection in mice; type: in vivo, mouse; details: 2 nmol/g intraperitoneal, 24 h, n ≥ 5
Method: (§2) 8‐week‐old wild‐type (Gprc6a ^ +/+ ) and global knock out (Gprc6a ^ −/− ) mice were injected intraperitoneally with Ocn 20–29 (2 nmol/g body weight), or vehicle (saline; 10 μL/g body weight). Serum was collected at 24 h after intraperitoneal injection. Blood glucose levels were measured by using blood glucose strips and the Accu‐Check glucometer as described.[7], [31] A mouse IL‐6 ELISA Kit was purchased from Invitrogen (Waltham, MA, USA). Rat/Mouse FGF‐21ELISA Kit was obtained from Millipore Sigma (Burlington, MA, USA).
(§3) The Gprc6a ^ −/− mouse model was created by replacing exon 2 of the GPRC6A gene with the hygromycin resistance gene, as described previously.[32] Mice were maintained and used in accordance with recommendations as described (National Research Council 1985; Guide for the Care and Use of Laboratory Animals Department of Health and Human Services Publication NIH 86–23, Institute on Laboratory Animal Resources, Rockville, MD) and following guidelines established by the University of Tennessee Health Science Center Institutional Animal Care and Use Committee. The animal study protocol was approved by the institutional review boards at University of Tennessee Health Science Center Institutional Animal Care and Use Committee.

[4] = test system: wild‐type (Gprc6a +/+) and global knock out (Gprc6a −/−) mice; experiment: Serum IL-6 (ELISA) after intraperitoneal injection in mice; type: in vivo, mouse; details: 2 nmol/g IP, 24 h, n ≥ 5
Method: as §2, §3

[5] = HEK-293 with pcDNA3-hGPRC6A, 40 min

cAMP accumulation, dose response of full-length Ocn ([1]; WT hGPRC6A, Figure 6A) | cAMP accumulation by synthesized human Ocn fragments [1, 5] | Potency compared to full-length Ocn 1–49, cAMP dose response ([1]; HEK-293 with pcDNA3-hGPRC6A, Figure S5A) | Substance | Ocn-induced cAMP accumulation, dose response ([1]; isoform 1, Ocn 1.73, 8.65, 17.3, 26.0 nM, 1 mM calcium, 40 min, Figure 2C) | Activation of GPRC6A signaling in GPRC6A isoforms ([2]; all isoforms, including isoforms 2 and 3 with deletions in the VFT) | Blood glucose response ([3]; Gprc6a −/− mice) | Reduction of blood glucose levels ([3]; wild-type Gprc6a +/+ mice, 8 weeks old, single injection, vehicle saline had no effect) | Serum IL-6 response ([4]; Gprc6a −/− mice) | Serum IL-6 level versus vehicle ([4]; wild-type Gprc6a +/+ mice) | Response of GPRC6A isoforms 2 and 3 ([2]; isoforms 2 and 3)
dose‐dependently stimulated | – | – | osteocalcin (YLYQWLGAPVPYPDPLEPRREVCELNPDCDELADHIGFQEAYRRFYGPV; not fully specified; ends and bridges not checked; UniProt P02818 52-100, looked up) [Ocn 1–49, full human Ocn (49 aa) synthesized by BioMatik; methods also describe decarboxylated Ocn purified from bovine tibial bone, reference compound] | activated GPRC6A isoform 1 in a dose dependent manner | – | – | – | – | – | –
– | high activity | – | RFYGPV [Ocn 44–49, synthesized human Ocn C‐terminal hexapeptide] | – | activated GPRC6A signaling in all GPRC6A isoforms | – | – | – | – | –
– | high activity | greater potency | REVCELNPDC (disulfide 4-10 (inferred)) [Ocn 20–29, synthesized human Ocn decapeptide fragment located in the middle of the protein] | – | – | lost | ~ 10% | lost | significant increase | diminished responses
